In ChEMBL document CHEMBL1138078, “Antitumor activity of JS-K [O2-(2,4-dinitrophenyl) 1-[(4-ethoxycarbonyl)piperazin-1-yl]diazen-1-ium-1,2-diolate] and related O2-aryl diazeniumdiolates in vitro and in vivo” (J Med Chem, 2006):

Legend:
HL-60 = assay: Antiproliferative activity against human HL60 cell line; format: functional, cell-based
786-0 = assay: Antiproliferative activity against human 786-0 cell line at 100 uM; format: functional
TK-10 = assay: Antiproliferative activity against human TK10 cell line at 100 uM; format: functional
CAKI-1 = assay: Antiproliferative activity against human CAKI1 cell line at 100 uM; format: functional
[1] = system: Panel NCI-51 (51 carcinoma cell lines); assay: Antiproliferative activity against human NCI51 cell line; format: functional
JM1 = assay: Antiproliferative activity against JM1 cell line implanted in Fischer rat liver assessed as decrease in tumor weight; format: functional, cell-based

SMILES | IC50 (HL-60; Homo sapiens, HL-60) [µM] | further results
CC(C)Cc1ccc(C(C)C(=O)N2CCN(/[N+]([O-])=N\Oc3ccc([N+](=O)[O-])cc3[N+](=O)[O-])CC2)cc1 (stereo not given) | 3.2 | –
CCOC(=O)N1CCN(/[N+]([O-])=N/Oc2ccnc(Cl)n2)CC1 | 70 | –
O=NO [SODIUM NITRITE] | 94 | –
O=[N+]([O-])c1ccc(O/N=[N+](/[O-])N2CCN(c3ccccc3)CC2)nc1 | 8 | –
COc1ccc(N(C)c2cc(O/N=[N+](/[O-])N(C)C)c([N+](=O)[O-])cc2[N+](=O)[O-])cc1 | > 100 | –
CNc1ccc(C(=O)Oc2cc(O/N=[N+](/[O-])N(C)C)c([N+](=O)[O-])cc2[N+](=O)[O-])cc1 | 6.3 | –
CC(=O)Oc1ccccc1C(=O)N1CCN(/[N+]([O-])=N\Oc2ccc([N+](=O)[O-])cc2[N+](=O)[O-])CC1 | 3.7 | –
O=C(c1cccnc1)N1CCN(/[N+]([O-])=N\Oc2ccc([N+](=O)[O-])cc2[N+](=O)[O-])CC1 | 7.3 | –
O=[N+]([O-])c1ccc(O)c([N+](=O)[O-])c1 [2,4-DINITROPHENOL] | 98 | –
O=C(ON1C(=O)CCC1=O)N1CCN(/[N+]([O-])=N\Oc2ccc([N+](=O)[O-])cc2[N+](=O)[O-])CC1 | 27 | –
O=C(OCc1ccccc1)N1CCN(/[N+]([O-])=N\Oc2ccc([N+](=O)[O-])cc2[N+](=O)[O-])CC1 | 17 | Activity (786-0): 100%; Activity (TK-10): 100%; Activity (CAKI-1): 100%; GI50 [1]: 7.08 µM; LC50 [1]: 77.6 µM; TGI [1]: 30.9 µM
C1CNCCN1 [PIPERAZINE] | 83 | –
CCOC(=O)N1CCN(/[N+]([O-])=N/Oc2cc(F)c([N+](=O)[O-])cc2[N+](=O)[O-])CC1 | 1 | –
N[C@@H](CCC(=O)N[C@H](CSc1ccc([N+](=O)[O-])cc1[N+](=O)[O-])C(=O)NCC(=O)O)C(=O)O | 8.4 | –
O=[N+]([O-])c1ccc(Cl)c([N+](=O)[O-])c1 [DINITROCHLOROBENZENE] | – | IC50 (HL-60; hl-60): 1.4 µM
CCOC(=O)N1CCN(/[N+]([O-])=N/Oc2ccc([N+](=O)[O-])cc2[N+](=O)[O-])CC1 | 0.5 | GI50 [1]: 1.32 µM; TGI [1]: 6.61 µM; Activity (JM1): Dose-dependent effect
CCOC(=O)N1CCNCC1 [N-(ETHOXYCARBONYL)PIPERAZINE] | 8.6 | –
CCOC(=O)N1CCN(/[N+]([O-])=N/Oc2cc(O/N=[N+](\[O-])N3CCN(C(=O)OC)CC3)c([N+](=O)[O-])cc2[N+](=O)[O-])CC1 | 0.8 | –
CCOC(=O)N1CCN(/[N+]([O-])=N\O)CC1 | 4 | –
CCCCOC(=O)N1CCN(/[N+]([O-])=N\Oc2ccc([N+](=O)[O-])cc2[N+](=O)[O-])CC1 | 3.5 | TGI (HL-60; Homo sapiens, HL-60): 57.5 µM; Activity (786-0): 100%; Activity (TK-10): 100%; Activity (CAKI-1): 100%; GI50 [1]: 6.31 µM; LC50 [1]: 63.1 µM; TGI [1]: 23.4 µM
CCCOC(=O)N1CCN(/[N+]([O-])=N\Oc2ccc([N+](=O)[O-])cc2[N+](=O)[O-])CC1 | 3.7 | TGI (HL-60; Homo sapiens, HL-60): 8.1 µM; Activity (786-0): 100%; Activity (TK-10): 100%; Activity (CAKI-1): 100%; GI50 [1]: 2.04 µM; LC50 [1]: 40.7 µM; TGI [1]: 10.2 µM

More lines, main results first:

IC50 (HL-60; Homo sapiens, HL-60) [µM] | SMILES | further results
5 | O=[N+]([O-])c1ccc(O/N=[N+](/[O-])N2CCNCC2)c([N+](=O)[O-])c1 | –
7.4 | O=[N+]([O-])c1ccc(O/N=[N+](\[O-])N2CCCC2)c([N+](=O)[O-])c1 | –
6.7 | CN1CCN(/[N+]([O-])=N\Oc2ccc([N+](=O)[O-])cc2[N+](=O)[O-])CC1 | –
10.1 | CN(C)/[N+]([O-])=N/Oc1cc(Nc2cccc(C(=O)O)c2)c([N+](=O)[O-])cc1[N+](=O)[O-] | –
5.9 | NC(=O)C1CCN(/[N+]([O-])=N/Oc2ccc([N+](=O)[O-])cc2[N+](=O)[O-])CC1 | –
5.2 | CN(C)S(=O)(=O)N1CCN(/[N+]([O-])=N\Oc2ccc([N+](=O)[O-])cc2[N+](=O)[O-])CC1 | –
> 100 | CN(C)/[N+]([O-])=N\Oc1ccc([N+](=O)[O-])cn1 | –
8.8 | CC(=O)NCC(=O)N1CCN(/[N+]([O-])=N\Oc2ccc([N+](=O)[O-])cc2[N+](=O)[O-])CC1 | –
> 100 | CCN(CC)/[N+]([O-])=N\Oc1ccccc1[N+](=O)[O-] | –
3.9 | CC(=O)N1CCN(/[N+]([O-])=N\Oc2ccc([N+](=O)[O-])cc2[N+](=O)[O-])CC1 | –
96 | CCN(CC)/[N+]([O-])=N\Oc1ccc([N+](=O)[O-])cc1C(F)(F)F | –
2.4 | CN(C)/[N+]([O-])=N\Oc1ccc([N+](=O)[O-])cc1[N+](=O)[O-] | –
8.1 | CC(C)(C)OC(=O)N1CCN(/[N+]([O-])=N\Oc2ccc([N+](=O)[O-])cc2[N+](=O)[O-])CC1 | –
7.3 | CCN(CC)C(=O)N1CCN(/[N+]([O-])=N\Oc2ccc([N+](=O)[O-])cc2[N+](=O)[O-])CC1 | –
> 100 | O=[N+]([O-])c1cc(C(F)(F)F)ccc1O/N=[N+](\[O-])N1CCN(c2ccccc2)CC1 | –
3.5 | CN(C)/[N+]([O-])=N\Oc1cc(F)c([N+](=O)[O-])cc1[N+](=O)[O-] | –
9.1 | CN(C)/[N+]([O-])=N\Oc1cc(Nc2ccc(C(=O)O)cc2)c([N+](=O)[O-])cc1[N+](=O)[O-] | –
> 100 | CCN(CC)/[N+]([O-])=N\Oc1ccc([N+](=O)[O-])cc1 | –
> 100 | CCN(CC)/[N+]([O-])=N\Oc1ccnc(SC)n1 | –
12 | CN(c1cccc(C(=O)O)c1)c1cc(O/N=[N+](/[O-])N(C)C)c([N+](=O)[O-])cc1[N+](=O)[O-] | –
2.2 | CCN(CC)/[N+]([O-])=N/Oc1ccc([N+](=O)[O-])cc1[N+](=O)[O-] | –
1 | CCN(CC)/[N+]([O-])=N/Oc1cc(O/N=[N+](/[O-])N(CC)CC)c([N+](=O)[O-])cc1[N+](=O)[O-] | –
1.5 | O=[N+]([O-])c1ccc(O/N=[N+](/[O-])N2CCN(c3ccccc3)CC2)c([N+](=O)[O-])c1 | –
3.6 | O=[N+]([O-])c1ccc(O/N=[N+](\[O-])N2CCN(c3ncccn3)CC2)c([N+](=O)[O-])c1 | –
4.4 | NC(=O)C1CCCN(/[N+]([O-])=N/Oc2ccc([N+](=O)[O-])cc2[N+](=O)[O-])C1 (stereo not given) | –
> 100 | CN(C)/[N+]([O-])=N\Oc1cc(O)c([N+](=O)[O-])cc1[N+](=O)[O-] | –
